Results: the supplement of paper PMC10307832

Tests used:
Assay in all cases: relative viability (nuclei count vs DMSO), 5 days (fraction); higher = more cells survive
Mirin + Trametinib = compound: N=C1NC(=O)/C(=C/c2ccc(O)cc2)S1 [Mirin] + CC(=O)Nc1cccc(-n2c(=O)n(C3CC3)c(=O)c3c(Nc4ccc(I)cc4F)n(C)c(=O)c(C)c32)c1 [Trametinib] (partner 0.02 µM)
How it was run: (§1)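 The day after seeding in 1536-well plates, lung cancer cell lines were treated by pin tool with a single drug, or with a fixed anchor-drug dose together with five library-drug doses (not always all listed) in √10 steps. After 5 days, a combined fix-and-stain solution (final 0.05% Triton X-100, 1% formaldehyde, 1 ug/ml Hoechst) was added. Nuclei counted on 4× images gave relative viability as treated counts over vehicle counts, reported as the median of duplicate plates.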

[1] = compound: CCC1=CN=CN=C1N2CCN(CC2)CC3=NC4=C(N3)C=C(C=C4)C(F)(F)F + CCNC(=O)c1noc(-c2cc(C(C)C)c(O)cc2O)c1-c1ccc(CN2CCOCC2)cc1 [Luminespib] (partner 0.01 µM)
How it was run: as §1

[2] = compound: CCC1=CN=CN=C1N2CCN(CC2)CC3=NC4=C(N3)C=C(C=C4)C(F)(F)F + CS(=O)(=O)N1CCN(Cc2cc3nc(-c4cccc5[nH]ncc45)nc(N4CCOCC4)c3s2)CC1 [Pictilisib] (partner 1 µM)
How it was run: as §1

[3] = compound: CCC1=CN=CN=C1N2CCN(CC2)CC3=NC4=C(N3)C=C(C=C4)C(F)(F)F + CC(C)C[C@H](NC(=O)[C@H](Cc1ccccc1)NC(=O)c1cnccn1)B(O)O [Bortezomib] (partner 0.002 µM)
How it was run: as §1

Cell Line	relative viability (Mirin + Trametinib; first compound 0.25 µM)	relative viability (Mirin + Trametinib; first compound 0.7906 µM)	relative viability (Mirin + Trametinib; first compound 2.5 µM)	relative viability (Mirin + Trametinib; first compound 7.906 µM)	relative viability (Mirin + Trametinib; first compound 25 µM)	relative viability ([1]; first compound 0.04 µM)	relative viability ([1]; first compound 0.1265 µM)	relative viability ([1]; first compound 0.4 µM)	relative viability ([1]; first compound 1.265 µM)	relative viability ([1]; first compound 4 µM)	relative viability ([2]; first compound 0.04 µM)	relative viability ([2]; first compound 0.1265 µM)	relative viability ([2]; first compound 0.4 µM)	relative viability ([2]; first compound 1.265 µM)	relative viability ([2]; first compound 4 µM)	relative viability ([3]; first compound 0.04 µM)	relative viability ([3]; first compound 0.1265 µM)	relative viability ([3]; first compound 0.4 µM)	relative viability ([3]; first compound 1.265 µM)	relative viability ([3]; first compound 4 µM)
RERF-LC-KJ	0.897	0.975	0.782	0.842	0.816	1.24	1.23	1.21	1.12	1.05	0.558	0.498	0.487	0.444	0.505	1.04	1.01	1.11	0.941	1.11
CAL-12T	0.336	0.373	0.405	0.357	0.32	0.803	0.454	0.485	0.273	0.29		0.541	0.295	0.314	0.361		0.997	0.888	1.06	1.07
COR-L 105	0.428	0.482	0.431	0.449	0.451	0.8	1.08	0.77	0.724	0.732	0.372	0.376	0.385	0.247	0.464	0.861	0.913	0.737	0.475	0.836
NCI-H2405	0.615		0.6	0.594	0.645	0.684	0.704	0.657		0.794	0.486	0.379	0.43		0.575	0.892	0.703	0.968		1
NCI-H2228	0.627	0.39	0.551	0.382	0.423	0.131	0.132	0.131	0.144	0.175	0.383	0.397	0.297	0.309	0.436	1.29	1.11	1.19	1.05	1.11
PC-14	0.788	0.893	0.725	0.725	0.776	0.175	0.207	0.215	0.134	0.133	0.845	0.621	0.671	0.573	0.6	0.938	0.815	0.856	0.848	0.935
NCI-H2087	0.292	0.211	0.161	0.19	0.209	0.164	0.227	0.162	0.142	0.142	0.852	0.906	0.883	0.819	0.653	0.859	0.805	0.824	0.65	0.766
A549											0.547	0.488	0.467	0.507	0.426					
NCI-H2342	0.805	0.853	0.803		0.751	0.645	0.756	0.619	0.52	0.494										
NCI-H1623						0.44	0.513	0.383	0.476	0.651										
SW 1573	0.647	0.557	0.567	0.51	0.369	0.158	0.211	0.174	0.273	0.399	0.441	0.43	0.44	0.474	0.426	1.09	1.08	0.937	0.893	0.892
